Counter-ions that a name gives are not always drawn.
Columns and labels:
[1] = target: T1, catalytic domain of human recombinant MMP-3 (Homo sapiens, UniProt P08254); assay: In vitro MMP inhibition assay, MMP-3 catalytic domain (fluorogenic peptide substrate cleavage, Ki); assay type: biochemical; settings: human MMP-3, catalytic domain (CD); read-out: hMMP Ki 03/CD
T1 construct: made in house
Description: (§1) Matrix Metalloproteinase inhibitor compounds were analyzed in in vitro MMP Inhibition assays to determine their ability to inhibit the MMP cleavage of peptide substrates. Inhibition constants (Ki) were calculated from the assayed compound-MMP interactions.
(§2) Human recombinant MMP-1, MMP-2, MMP-3, MMP-7, MMP-9, MMP-12, MMP-13, MMP-14 and MMP-15 were used in these assays. The enzymes are prepared following known laboratory procedures. Protocols for the preparation and use of these enzymes are available in the scientific literature. See, e.g., Enzyme Nomenclature (Academic Press, San Diego, Calif., 1992) and the citations therein. See also Frije et al., J. Biol. Chem., 26(24), 16766-73 (1994).
The catalytic domain MMP-3 cDNA may be used to express the catalytic domain enzyme in E. coli inclusion bodies. Then the enzyme is solubilized in urea, purified on a preparative […] reverse phase HPLC column, and refolded in the presence of zinc acetate and purified for use.
The fluorogenic, methoxycoumarin-containing polypeptide substrate Mca-Arg-Pro-Lys-Pro-Val-Glu-Nva-Trp-Arg-Lys(Dnp)-NH2 (Bachem catalog number M-2110) was used as the MMP substrate in the MMP inhibition assays for catalytic domain of human recombinant MMP-3 (which refers to the catalytic domain of stromelysin). Here, “MCA” is 7-methoxycoumarin-4-yl acetyl and “Dpa” is 3-(2,4-dinitrophenyl)-L-2,3-di-aminopropionyl group. In the absence of MMP inhibitory activity, the substrate is cleaved at the Gly-Leu peptide bond. The cleavage separates the highly fluorogenic peptide from the 2,4-dinitrophenyl quencher, resulting in an increase of fluorescent intensity.
For the human MMP-3 assay, dilutions of the inhibitors (or salts thereof) were prepared in 100% DMSO. The stock solutions were diluted in Buffer B (50 mM N-morpholinoethane sulfonate (“MES”), 100 mM NaCl, 10 mM CaCl2, 0.005% polyoxyethylene 23 lauryl ether, pH 6.0)) to obtain solutions with different compound concentrations, i.e., assay solutions with different concentrations of the assayed MMP inhibitory compound in 1% DMSO. The experiment controls contained the same amount of Buffer B/DMSO as the assayed sample, but contained no inhibitor.
(§3) To determine Ki, the inhibitor samples are incubated at room temperature for 1 hr in the presence of enzyme and then 4 μM of appropriate MMP substrate was added, and samples were analyzed on a Tecan SpectraFlour Plus plate reader. The excitation wavelength is 330 nm, and the emission (fluorescence) wavelength is 420 nm. In the absence of MMP inhibitory activity, the substrate is cleaved at the Gly-Leu bond resulting in an increase of relative fluorescence. Inhibition is observed as a reduced rate of increase in relative fluorescence.
The inhibitors are analyzed using a single low enzyme concentration with a single substrate concentration fixed at or below the Km. This protocol is a modification of method by Knight et al., FEBS Lett., 296(3), 263-266 (1992). Apparent inhibitory constants are determined by non-linear regression of reaction velocity as a function of inhibitor and enzyme concentration using Morrison's equation, as described by Kuzmic, Anal. Biochem. 286, 45-50 (2000). Modifications were made in the non-linear regression method to allow a common control reaction rate and effective enzyme concentration to be shared between all dose-response relationships on a given assay plate. Since the substrate concentration was chosen to be at or below the Km, the apparent Ki's from this analysis were reported as Ki's without correction for the influence of substrate.

[2] = target: T2, Human recombinant MMP-13 (Homo sapiens, UniProt P45452); assay: In vitro MMP inhibition assay, MMP-13 (fluorogenic peptide substrate cleavage, Ki); assay type: biochemical; settings: human MMP-13, full length (FL); read-out: hMMP Ki 13/FL
T2 construct: made in house; host or cells: baculovirus expression (insect cells)
Description: as §1, §2
The MMP-13 may be obtained as a proenzyme from a full-length cDNA clone using baculovirus expression, as described by V. A. Luckow, “Insect Cell Expression Technology,” Protein Engineering: Principles and Practice, pp. 183-218 (edited by J. L. Cleland et al., Wiley-Liss, Inc., 1996). The expressed proenzyme was first purified over a heparin agarose column, and then over a chelating zinc chloride column. Further details on baculovirus expression systems may be found in, for example, Luckow et al., J. Virol., 67, 4566-79 (1993). See also O'Reilly et al, Baculovirus Expression Vectors: A Laboratory Manual (W. H. Freeman and Co., New York, N.Y., 1992). See also King et al., The Baculovirus Expression System: A Laboratory Guide (Chapman & Hall, London, England, 1992).
All full length MMPs were activated using 4-aminophenylmercuric acetate (“APMA”, Sigma Chemical, St. Louis, Mo.) or trypsin. MMP-9 also was activated using human recombinant MMP-3 following standard cloning and purification techniques.
The fluorogenic, methoxycoumarin-containing polypeptide substrate MCA-ArgProLeuGlyLeuDpaAlaArgGluArgNH2 was used as the MMP substrate in the MMP inhibition assays for human recombinant MMP-1, MMP-2, MMP-7, MMP-9, MMP-12, MMP-13, MMP-14 and MMP-15. Here, “MCA” is 7-methoxycoumarin-4-yl acetyl and “Dpa” is 3-(2,4-dinitrophenyl)-L-2,3-di-aminopropionyl group. In the absence of MMP inhibitory activity, the substrate is cleaved at the Gly-Leu peptide bond. The cleavage separates the highly fluorogenic peptide from the 2,4-dinitrophenyl quencher, resulting in an increase of fluorescent intensity.
For the human MMP-1, MMP-2, MMP-7, MMP-9, MMP-12, MMP-13, MMP-14 and MMP-15 assays, dilutions of the inhibitors (or salts thereof) were prepared in 100% dimethyl sulfoxide (DMSO). The stock solutions were diluted in Buffer A (100 mM Tris-HCl, 100 mM NaCl, 10 mM CaCl2, 0.005% polyoxyethylene 23 lauryl ether, pH 7.5) to obtain solutions with different compound concentrations, i.e., assay solutions with different concentrations of the assayed MMP inhibitory compound in 1% DMSO. The experiment controls contained the same amount of Buffer A/DMSO as the assayed sample, but contained no inhibitor.
as §3
The inhibitors are analyzed using a single low enzyme concentration with a single substrate concentration fixed at or below the Km. This protocol is a modification of method by Knight et al., FEBS Lett., 296(3), 263-266 (1992). Apparent inhibitory constants are determined by non-linear regression of reaction velocity as a function of inhibitor and enzyme concentration using Morrison's equation, as described by Kuzmic, Anal. Biochem. 286, 45-50 (2000). […]

T1 sequence (P08254 100-272 limits assumed): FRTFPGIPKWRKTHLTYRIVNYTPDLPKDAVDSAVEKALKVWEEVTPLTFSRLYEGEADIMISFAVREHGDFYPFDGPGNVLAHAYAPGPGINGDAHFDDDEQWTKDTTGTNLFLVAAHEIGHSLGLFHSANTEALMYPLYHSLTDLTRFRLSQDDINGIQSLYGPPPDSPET

Work on COc1cccc(CNC(=O)c2nc3ccc(F)c(OC[C@H]4CO[C@H](CO)CO4)c3c(=O)[nH]2)c1 (relative stereo) [Example 3, 6-Fluoro-5-{[(trans-2,5)-5-(hydroxymethyl)-1,4-dioxan-2-yl]methoxy}-N-(3-methoxybenzyl)-4-oxo-3,4-dihydroquinazoline-2-carboxamide] yielded a Ki [1] of 8580 nM and a Ki [2] of 16.4 nM.
For COc1cccc(CNC(=O)c2nc3scc(COC[C@@H]4CO[C@@H](C(=O)O)CO4)c3c(=O)[nH]2)c1 (relative stereo) [Example 8, Trans-5-(((2-((3-Methoxybenzyl)carbamoyl)-4-oxo-3,4-dihydrothieno[2,3-d]pyrimidin-5-yl)methoxy)methyl)-1,4-dioxane-2-carboxylic acid], the Ki [1] was 1310 nM and the Ki [2] was 4.16 nM.
With COc1cc(CNC(=O)c2nc3scc(COC[C@@H]4CO[C@@H](CO)CO4)c3c(=O)[nH]2)ccc1F (relative stereo) [Example 11, N-(4-Fluoro-3-methoxybenzyl)-5-(((trans-5-(hydroxymethyl)-1,4-dioxan-2-yl)methoxy)methyl)-4-oxo-3,4-dihydrothieno[2,3-d]pyrimidine-2-carboxamide] the Ki [1] was 663 nM and the Ki [2] was 11 nM.
In the case of COc1cc(CNC(=O)c2nc3scc(COC[C@@H]4CO[C@@H](C(=O)O)CO4)c3c(=O)[nH]2)ccc1F (relative stereo) [Example 12, Trans-5-(((2-((4-Fluoro-3-methoxybenzyl)carbamoyl)-4-oxo-3,4-dihydrothieno[2,3-d]pyrimidin-5-yl)methoxy)methyl)-1,4-dioxane-2-carboxylic acid], the Ki [1] is reported as 668 nM and the Ki [2] is reported as 1.62 nM.
In the case of COc1cc(CNC(=O)c2nc3scc(COC[C@@H]4CO[C@@H](C(N)=O)CO4)c3c(=O)[nH]2)ccc1F (relative stereo) [Example 15, N-(4-Fluoro-3-methoxybenzyl)-5-(((trans-5-carbamoyl-1,4-dioxan-2-yl)methoxy)methyl)-4-oxo-3,4-dihydrothieno[2,3-d]pyrimidine-2-carboxamide], the Ki [1] is reported as 960 nM and the Ki [2] is reported as 4.04 nM.
COc1cccc(CNC(=O)c2nc3ccc(F)c(OC[C@@H]4CO[C@@H](CN)CO4)c3c(=O)[nH]2)c1 (relative stereo) [Example 36, 5-{[(trans 2,5)-5-(aminomethyl)-1,4-dioxan-2-yl]methoxy}-6-fluoro-N-(3-methoxybenzyl)-4-oxo-3,4-dihydroquinazoline-2-carboxamide] was tested, and the Ki [2] was 19.9 nM.
COc1cccc(CNC(=O)c2nc3scc(COC[C@H]4CC[C@H](N)CC4)c3c(=O)[nH]2)c1 [Example 1, 5-({[trans-4-Aminocyclohexyl]methoxy}methyl)-N-(3-methoxybenzyl)-4-oxo-3,4-dihydrothieno[2,3-d]pyrimidine-2-carboxamide] gave a Ki [2] of 13 nM.
With COc1cccc(CNC(=O)c2nc3scc(COC[C@H]4CC[C@H](CO)CC4)c3c(=O)[nH]2)c1 [Example 4, N-(3-methoxybenzyl)-5-(((trans-4-(hydroxymethyl)cyclohexyl)methoxy)methyl)-4-oxo-3,4-dihydrothieno[2,3-d]pyrimidine-2-carboxamide] the Ki [1] was 337 nM and the Ki [2] was 0.471 nM.
For COc1cccc(CNC(=O)c2nc3scc(COC[C@H]4CC[C@H](C(=O)O)CC4)c3c(=O)[nH]2)c1 [Example 5, Trans-4-(((2-((3-Methoxybenzyl)carbamoyl)-4-oxo-3,4-dihydrothieno[2,3-d]pyrimidin-5-yl)methoxy)methyl)cyclohexanecarboxylic acid], the Ki [1] was 389 nM and the Ki [2] was 0.221 nM.
In the case of COc1cccc(CNC(=O)c2nc3scc(COC[C@H]4CC[C@H](C#N)CC4)c3c(=O)[nH]2)c1 [Example 6, N-(3-Methoxybenzyl)-5-(((trans-4-cyanocyclohexyl)methoxy)methyl)-4-oxo-3,4-dihydrothieno[2,3-d]pyrimidine-2-carboxamide], the Ki [1] is reported as 468 nM and the Ki [2] is reported as 0.747 nM.
In the case of COc1cc(CNC(=O)c2nc3scc(COC[C@H]4CC[C@H](C(=O)O)CC4)c3c(=O)[nH]2)ccc1F [Example 10, Trans-4-(((2-((4-Fluoro-3-methoxybenzyl)carbamoyl)-4-oxo-3,4-dihydrothieno[2,3-d]pyrimidin-5-yl)methoxy)methyl)cyclohexanecarboxylic acid], the Ki [1] is reported as 163 nM and the Ki [2] is reported as 0.143 nM.
COc1cc(CNC(=O)c2nc3scc(COC[C@H]4CC[C@H](C(N)=O)CC4)c3c(=O)[nH]2)ccc1F [Example 13, N-(4-Fluoro-3-methoxybenzyl)-5-(((trans-4-carbamoylcyclohexyl)methoxy)methyl)-4-oxo-3,4-dihydrothieno[2,3-d]pyrimidine-2-carboxamide] was tested, and the Ki [1] was 258 nM and the Ki [2] was 0.141 nM.
In the case of COc1cc(CNC(=O)c2nc3scc(COC[C@H]4CC[C@H](C#N)CC4)c3c(=O)[nH]2)ccc1F [Example 14, N-(4-Fluoro-3-methoxybenzyl)-5-(((trans-4-cyanocyclohexyl)methoxy)methyl)-4-oxo-3,4-dihydrothieno[2,3-d]pyrimidine-2-carboxamide], the Ki [1] is reported as 350 nM and the Ki [2] is reported as 0.479 nM.
COc1cccc(CNC(=O)c2nc3scc(COC[C@H]4CC[C@H](NS(C)(=O)=O)CC4)c3c(=O)[nH]2)c1 [Example 16, N-(3-Methoxybenzyl)-5-[({trans-4-[(methylsulfonyl)amino]cyclohexyl}methoxy)methyl]-4-oxo-3,4-dihydrothieno[2,3-d]pyrimidine-2-carboxamide] showed a Ki [1] of 533 nM and a Ki [2] of 0.41 nM.
Molecule COc1cccc(CNC(=O)c2nc3scc(COCCC4CCNCC4)c3c(=O)[nH]2)c1 [Example 26, N-(3-methoxybenzyl)-4-oxo-5-[(2-piperidin-4-ylethoxy)methyl]-3,4-dihydrothieno[2,3-d]pyrimidine-2-carboxamide hydrochloride] has a Ki [2] of 9.28 nM.

Source: patent US20110009435A1, “HETERO BICYCLIC CARBOXAMIDE DERIVATIVES AND THEIR PHARMACEUTICAL USE AND COMPOSITIONS” (Pfizer, Inc., priority 2007, published 2011)
